Assay results published in US9738630B2, “Inhibitors of lysine methyl transferase” (BRISTOL-MYERS SQUIBB COMPANY, priority 2013, dated 2017).

Molecular target: recombinant EZH2-641F complex (EZH2 Y641F/EED/SUZ12/RbAp48/AEBP2) (Homo sapiens (Human), UniProt Q15910, Y641F)
Test: EZH2 Histone Methyl Transferase Assay (scintillation proximity assay)
Type: biochemical
Settings: 350 nM histone peptide substrate, 500 nM 3H-SAM, 3 hours at room temperature
Text: EZH2 Histone Methyl Transferase Assay
The effectiveness of compounds of the present invention as inhibitors of hitone methyl transferases can be readily tested by assays known to those skilled in the art. For example, in vitro histone methyl transferase assays may be conducted with a relevant purified histone methyl transferase and an appropriate synthetic substrate to determine the inhibitory activity of the compounds. […] Reaction products were captured by binding to strepavidin-conjugated imaging beads. Incorporation of radioactive methyl group into the histone peptide substrate was determined in Leadseeker (GE Healthcare) by means of scintiallation proximity assay. […] Compounds were dissolved at 10 mM in dimethylsulfoxide (DMSO) and evaluated at eleven concentrations. EC50 values were derived by non-linear regression analysis.

Sequence of recombinant EZH2-641F complex (EZH2 Y641F/EED/SUZ12/RbAp48/AEBP2) (Q15910 whole entry Y641F): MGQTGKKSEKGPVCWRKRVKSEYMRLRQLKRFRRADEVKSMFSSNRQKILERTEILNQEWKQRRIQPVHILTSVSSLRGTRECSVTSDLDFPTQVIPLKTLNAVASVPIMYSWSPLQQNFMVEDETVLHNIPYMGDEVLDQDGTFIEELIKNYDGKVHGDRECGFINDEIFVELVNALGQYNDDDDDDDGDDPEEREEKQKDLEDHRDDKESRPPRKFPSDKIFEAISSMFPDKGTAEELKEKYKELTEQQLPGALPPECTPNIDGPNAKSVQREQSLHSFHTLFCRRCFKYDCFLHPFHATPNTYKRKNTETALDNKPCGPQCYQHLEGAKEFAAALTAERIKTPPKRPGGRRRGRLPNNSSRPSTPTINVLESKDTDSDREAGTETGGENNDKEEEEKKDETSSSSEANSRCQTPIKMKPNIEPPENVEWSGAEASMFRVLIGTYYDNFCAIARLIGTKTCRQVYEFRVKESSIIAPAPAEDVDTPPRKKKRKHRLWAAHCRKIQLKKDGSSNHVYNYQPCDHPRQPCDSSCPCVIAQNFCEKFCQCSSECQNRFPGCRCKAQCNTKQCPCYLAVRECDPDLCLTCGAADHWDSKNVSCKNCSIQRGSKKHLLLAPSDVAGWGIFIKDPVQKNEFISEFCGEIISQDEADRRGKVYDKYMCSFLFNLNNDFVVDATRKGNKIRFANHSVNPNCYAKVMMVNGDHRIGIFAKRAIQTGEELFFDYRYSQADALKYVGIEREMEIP
Sequence of recombinant EZH2-641F complex (EZH2 Y641F/EED/SUZ12/RbAp48/AEBP2) (O75530 whole entry partner): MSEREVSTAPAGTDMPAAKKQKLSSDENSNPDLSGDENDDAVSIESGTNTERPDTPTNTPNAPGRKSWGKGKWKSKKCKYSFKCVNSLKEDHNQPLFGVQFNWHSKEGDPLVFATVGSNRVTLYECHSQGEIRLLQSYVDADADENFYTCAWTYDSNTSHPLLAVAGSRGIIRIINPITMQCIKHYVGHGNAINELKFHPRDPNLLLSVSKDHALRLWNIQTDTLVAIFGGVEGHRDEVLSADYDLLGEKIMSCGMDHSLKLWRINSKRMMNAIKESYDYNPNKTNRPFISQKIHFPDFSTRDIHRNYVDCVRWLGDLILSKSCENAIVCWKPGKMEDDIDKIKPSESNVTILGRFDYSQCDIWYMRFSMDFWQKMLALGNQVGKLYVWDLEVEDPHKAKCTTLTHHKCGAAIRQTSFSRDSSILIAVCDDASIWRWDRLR
Sequence of recombinant EZH2-641F complex (EZH2 Y641F/EED/SUZ12/RbAp48/AEBP2) (Q15022 whole entry partner): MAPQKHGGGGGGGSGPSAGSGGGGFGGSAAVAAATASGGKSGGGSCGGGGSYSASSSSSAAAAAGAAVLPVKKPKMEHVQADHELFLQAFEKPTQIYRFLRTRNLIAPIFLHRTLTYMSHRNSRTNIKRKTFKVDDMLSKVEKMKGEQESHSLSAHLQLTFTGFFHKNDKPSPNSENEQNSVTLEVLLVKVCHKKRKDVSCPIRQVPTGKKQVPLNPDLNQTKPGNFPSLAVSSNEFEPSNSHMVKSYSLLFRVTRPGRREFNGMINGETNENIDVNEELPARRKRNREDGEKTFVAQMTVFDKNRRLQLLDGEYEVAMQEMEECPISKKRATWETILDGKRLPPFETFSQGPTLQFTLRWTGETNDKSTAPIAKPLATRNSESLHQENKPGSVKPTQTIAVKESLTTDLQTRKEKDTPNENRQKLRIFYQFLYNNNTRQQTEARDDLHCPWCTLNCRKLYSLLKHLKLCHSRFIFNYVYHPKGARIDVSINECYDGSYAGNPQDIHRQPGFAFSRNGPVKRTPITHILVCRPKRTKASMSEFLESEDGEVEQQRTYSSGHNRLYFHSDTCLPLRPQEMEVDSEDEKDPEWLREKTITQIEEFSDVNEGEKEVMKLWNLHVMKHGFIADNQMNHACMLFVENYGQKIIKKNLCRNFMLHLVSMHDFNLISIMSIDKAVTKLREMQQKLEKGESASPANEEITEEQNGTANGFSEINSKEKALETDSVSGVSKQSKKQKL
Sequence of recombinant EZH2-641F complex (EZH2 Y641F/EED/SUZ12/RbAp48/AEBP2) (Q09028 whole entry partner): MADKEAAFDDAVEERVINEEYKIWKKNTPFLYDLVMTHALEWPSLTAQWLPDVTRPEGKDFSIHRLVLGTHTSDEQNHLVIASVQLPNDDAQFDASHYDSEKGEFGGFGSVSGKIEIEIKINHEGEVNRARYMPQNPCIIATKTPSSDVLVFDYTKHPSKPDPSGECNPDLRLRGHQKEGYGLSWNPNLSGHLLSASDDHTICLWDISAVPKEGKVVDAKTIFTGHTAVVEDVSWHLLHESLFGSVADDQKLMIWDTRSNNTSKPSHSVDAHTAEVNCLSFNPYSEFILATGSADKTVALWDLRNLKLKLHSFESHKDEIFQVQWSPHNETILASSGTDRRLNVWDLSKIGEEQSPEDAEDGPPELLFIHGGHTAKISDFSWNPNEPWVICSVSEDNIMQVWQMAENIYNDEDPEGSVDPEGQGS
Sequence of recombinant EZH2-641F complex (EZH2 Y641F/EED/SUZ12/RbAp48/AEBP2) (Q6ZN18 whole entry partner): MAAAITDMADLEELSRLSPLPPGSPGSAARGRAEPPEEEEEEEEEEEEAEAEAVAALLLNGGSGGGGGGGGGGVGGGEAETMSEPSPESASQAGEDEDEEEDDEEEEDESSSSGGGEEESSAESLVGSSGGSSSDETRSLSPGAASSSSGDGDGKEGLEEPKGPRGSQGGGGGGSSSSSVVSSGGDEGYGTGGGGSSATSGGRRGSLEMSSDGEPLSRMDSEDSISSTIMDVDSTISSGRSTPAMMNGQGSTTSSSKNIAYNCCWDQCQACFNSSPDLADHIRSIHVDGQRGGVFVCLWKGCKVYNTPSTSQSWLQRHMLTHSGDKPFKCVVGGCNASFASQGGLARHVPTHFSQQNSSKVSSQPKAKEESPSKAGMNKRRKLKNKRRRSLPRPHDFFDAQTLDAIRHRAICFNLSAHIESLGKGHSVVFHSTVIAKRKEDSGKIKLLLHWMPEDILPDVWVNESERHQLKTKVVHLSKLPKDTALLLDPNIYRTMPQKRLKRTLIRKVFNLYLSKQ

Row | Structure (SMILES) | EC50 [µM]
1 | CCN(c1cc(-c2ccc(CN3CCOCC3)cc2)cc(C(=O)NCC2C(=O)NC(C)c3cccc(F)c32)c1C)C1CCOCC1 (stereo not shown) [Example 5, 5-(Ethyl(tetrahydro-2H-pyran-4-yl)amino)-N-((5-fluoro-1-methyl-3-oxo-1,2,3,4-tetrahydroisoquinolin-4-yl)methyl)-4-methyl-4′-(morpholinomethyl)-[1,1′-biphenyl]-3-carboxamide] | ≤ 5
2 | CCC(C)n1cc(C)c2c(C(=O)NCc3c(=O)[nH]c(C)c4ccccc34)cc(-c3ccc(N4CCNCC4)nc3)cc21 (stereo not shown) [Example 10, 1-(sec-Butyl)-3-methyl-N-((1-methyl-3-oxo-2,3-dihydroisoquinolin-4-yl)methyl)-6-(6-(piperazin-1-yl)pyridin-3-yl)-1H-indole-4-carboxamide] | ≤ 0.5
3 | CCC(C)n1cc(C)c2c(C(=O)NCc3c(=O)[nH]c(C)c4ccccc34)cc(-c3ccc(N4CCN(C(=O)OC(C)(C)C)CC4)nc3)cc21 (stereo not shown) [Example 9, tert-Butyl 4-(5-(1-(sec-butyl)-3-methyl-4-(((1-methyl-3-oxo-2,3-dihydroisoquinolin-4-yl)methyl)carbamoyl)-1H-indol-6-yl)pyridin-2-yl)piperazine-1-carboxylate] | ≤ 5
4 | Cc1[nH]c(=O)c(CNC(=O)c2cc3c(c(-c4ccc(N5CCNCC5)nc4)c2)OC(C)(C)C3)c2ccccc12 [Example 17, 2,2-Dimethyl-N-((1-methyl-3-oxo-2,3-dihydroisoquinolin-4-yl)methyl)-7-(6-(piperazin-1-yl)pyridin-3-yl)-2,3-dihydrobenzofuran-5-carboxamide] | ≤ 5
